The record followed here is a melting point compilation (Tetko et al.; mined from patent text by program, amines drawn as free bases though some values may be those of a salt).

Some results are limits rather than exact numbers.

One may read the melting point as the temperature of the solid-liquid transition.

Consider `CC(=O)Nc1ccc2oc(-c3ccc(OCc4ccccc4)c(OCc4ccccc4)c3)c(O)c(=O)c2c1`, for which the melting point lay within 229 to 230 °C. In turn, `O=C(Nc1cccc(Br)n1)Nc1cccc2c1C1CCCCN1C2=O` (centres undefined) came in with a melting point of 218 to 220 °C. As for `Cc1cc(NCC(=O)N(C)c2ccccc2)nc(-c2ccccc2)n1`, the figure is 134 to 136 °C; as for `Cc1oc(C(=O)NCc2ccc3c(c2)OCO3)c(C)c1-c1nc2ccc(C(=O)c3ccccc3)cc2[nH]1`, 122 to 125 °C. Consider `Cn1ccnc1-c1ccc(C(=O)CN=[N+]=[N-])cc1`, for which the melting point is more than 250 °C. With `CCn1ncnc1COc1nn2c(-c3ccccc3F)nncc2c1-c1ccco1` the figure was 182 to 183 °C. With `CN1Cc2c(C#CCO)ncn2-c2ccccc2C1=O` the figure was 240 to 241 °C; with `C#CCn1c(-c2cccc(C=O)c2)nc(CC)c(CC)c1=O`, 82 to 86 °C; with `CCOC(=O)c1cn(Cc2ccc(OCc3ccccc3)cc2)nc1-c1ccccc1`, 102 to 103 °C. As for `CNC(=O)Nc1ccc(Oc2cccc(C(F)(F)F)c2)c(Cl)c1`, the figure is 160 °C; as for `O=C(CNC(=O)C1CCCCC1)c1ccccc1`, 114 to 115 °C.

As to `CCCCc1c(C(=O)c2ccc(OC)cc2)[nH]c2ccc([N+](=O)[O-])cc12`, the melting point was 142 °C. With `CC1CCN(c2cc(F)cc(C(=O)Nc3ccc(Oc4ccnc(N5CCOCC5)n4)c4ccccc34)c2)CC1` the figure was 88 to 89 °C. With `O=S(=O)(c1ccc(Cl)cc1)C(c1cc(F)ccc1F)c1cc(NCCc2ccncc2)ncc1Cl` (centres undefined) the figure was 148 to 150 °C.

`Cc1ccc(-c2cc(NCc3cccc(CNc4cc(-c5ccc(C)cc5)[nH]n4)n3)n[nH]2)cc1` gave a melting point of 154 °C.

Compound `O=C1CC(c2cccc(-n3ccnc3)c2)=Nc2ccc(C#Cc3ccccc3)cc2N1` gave a melting point of 193 to 196 °C. In turn, `Nc1ccc(OCCCCCCCCCCOc2ccc(N)cc2)cc1` returned a melting point of 70 to 71 °C. With `O=C(CNc1ccc2[nH]ncc2c1)N1CCC(Cc2ccccc2)CC1` the figure was 42 to 47 °C; with `COc1nc(C)nc(NC(=O)NS(=O)(=O)c2sccc2C2OCCO2)n1`, 164 to 166 °C; with `c1cc2c(cc1C1CCC3(CC1)OCCO3)OCO2`, 115 to 116 °C. For `CC(C)=CCn1c(C)cnc1[N+](=O)[O-]`, the melting point was in the range of 78 to 79 °C. `Nc1ccc(I)cc1C=O` gave a melting point of 105 °C. As for `O=C1CC(c2ccccc2)CN1C(=O)c1ccc(Cl)cc1` (centres undefined), the figure is 157 to 158 °C; as for `CC(Oc1ccc(Oc2cnc3cc(Cl)ccc3n2)cc1)C(=O)Nc1ccc(OC(F)(F)C(F)F)cc1` (centres undefined), 146 to 148 °C. `CS(=O)(=O)Nc1cccc(Nc2nc(NCc3ncc[nH]3)c3nc[nH]c3n2)c1` had a melting point of 216 to 220 °C. With `CC(C)Cn1cc2c(O)nc(O)nc2n1` the figure was 328 to 330 °C; with `CCOC(=O)c1ccc(C(Cc2ccncc2)c2ccc(OC)c(OC3CCCC3)c2)cc1` (centres undefined), 170 to 173 °C. Compound `CCOCc1nc2c(N)nc3cc(-c4cccnc4)ccc3c2n1C[C@@H]1COC(C)(C)O1` yielded a melting point of 155 to 156 °C. As for `CN1CN(c2ccccc2)C2(CCN(CCCC(=O)c3ccc(F)cc3I)CC2)C1=O`, the figure is 115 to 118 °C; as for `O=c1cc(CN2CCCC2)[nH]c(=O)[nH]1`, 176 to 178 °C; as for `CSC1C(=O)Nc2ccc(Oc3ccccc3)cc21` (centres undefined), 124 to 128 °C. As for `Nc1ccc(C(=O)c2ccncc2)cc1[N+](=O)[O-]`, the figure is 294 to 295 °C; as for `CCOC(=O)C[C@H]1c2ccc(OC)cc2CC[C@H]1c1ccc(OC)cc1` (racemic), 81 °C.

Regarding `CCOC(=O)c1cnc2c3cc(NC(=O)C(CC)CC)ccc3ncn2c1=O`, the melting point is 220 to 222 °C.

Regarding `C=CCc1ccc2oc(C=CC(=O)OCC)c(C)c2c1O`, the melting point was 125 to 127 °C.

As for `O=C(O)Cn1c(=S)c2ccccc2n(Cc2ccc(Cl)cc2Cl)c1=O`, the melting point lay within 220 to 221 °C. As for `O=C(O)COc1ccc(SCc2ccc(OCc3ccccc3)cc2)c2c1CCC2`, the figure is 145 to 147 °C.

For the compound `CONC(=O)CON1C(=O)c2ccccc2C1=O`, the melting point worked out at 179 °C. As for `CCCn1c(=O)n2c(-c3cccs3)nnc2c2c1ncn2C`, the melting point fell in the range of 206 to 207 °C.

`CCC(CC)Oc1cc(C)nc2c1COCN2c1c(C)cc(Cl)cc1C`: the melting point lay within 190 to 192 °C. With `CNc1cccc(-c2ccc3c(C(N)=O)nn(-c4ccc(S(N)(=O)=O)cc4)c3c2)c1` the figure was 159 to 160 °C. With `O=C(NCc1ccn(C2=CC3=C(CC2)CCc2[nH]c(=O)c(=O)n(O)c23)c1)Nc1ccc(C(=O)O)cc1` the figure was more than 300 °C; with `O=S(=O)(CC(O)(CBr)c1cccc(Br)c1)c1ccccc1` (centres undefined), 132 °C; with `O=C(Nc1c(Cl)cccc1Cl)N(Cc1ccccc1)CC1(c2ccccc2)CCCC1`, 125 to 127 °C.

Compound `CC(=O)Oc1ccccc1C(=O)Nc1cccc(F)c1` displayed a melting point of 88.5 to 89.7 °C. `CC(=O)NC(=O)OC[C@]1(C)S[C@@H]2[C@H](NC(=O)COc3ccccc3)C(=O)N2[C@H]1C(=O)OCc1ccc([N+](=O)[O-])cc1` returned a melting point of 83 to 85 °C. `C[C@H]1Oc2cccc(F)c2N(C)C(=O)[C@H]1NC(=O)OC(C)(C)C` returned a melting point of 130 to 138 °C. Take `CC[C@@H](Nc1nc(NCc2ccccc2)c2ncn(C(C)C)c2n1)[C@H](C)O`: the melting point was in the range of 42 to 44 °C. In turn, `CCN1CCO[C@]2(C)c3cccc4[nH]cc(c34)C[C@@H]12` (relative stereo) gave a melting point of 129 to 130 °C.

As for `O=C(C[C@@H]1COCCO1)N[C@H]1CC[C@H](CCN2CCN(c3nccc4c3CCO4)CC2)CC1`, the melting point was 192 °C.

As for `O=C(Nc1ccccc1Cl)Oc1ccc2c(c1)CCCN2`, the melting point turned out to be 201 °C. The compound `NC(=O)c1cn(-c2ccccn2)nc1-c1ccc([N+](=O)[O-])o1` showed a melting point of 250 °C. With `CSc1ccc2[nH]c(=O)n(CCN3CCC(Nc4nc5ccccc5n4Cc4ccc(F)cc4)CC3)c(=O)c2c1` the figure was 238 °C. With `CCSC1(SCC)C(O)CC2C3CCC4=CC(=O)C=CC4(C)C3(F)C(OC(C)=O)CC21C` (centres undefined) the figure was 181 to 182 °C; with `Cc1ccc(-c2ccc3c(c2)C=C(C(=O)Nc2ccc(CP4(=O)OCCCO4)cc2)CCO3)cc1`, 268 to 269 °C; with `COc1ccc(C(=O)n2c3c(c4cc(C)ccc42)CC(C(=O)O)CC3)cc1` (centres undefined), 172 to 173 °C.

The compound `c1ccc(C(CC2=NCCN2)c2ccncc2)cc1` (centres undefined) displayed a melting point of 105 to 107 °C. As for `CC(=O)c1nc2cc(Cl)ccc2cc1OCc1ccccc1`, the figure is 76 to 77 °C; as for `Cc1cc(C)cc(S(=O)(=O)c2ccc(N)cc2)c1`, 178 to 179 °C; as for `O=C(Oc1ccccc1)Oc1ccccc1C(=O)NC(Oc1ccccc1)C(Cl)(Cl)Cl` (centres undefined), 110 to 111 °C. In turn, `CCN(CC)c1ccc(-n2c(C(F)(F)F)nn(C)c2=S)cn1` returned a melting point of 96 to 98 °C. The compound `O=C1c2ccccc2CN1C1CCN(C/C=C\CC2c3ccccc3-c3ccccc32)CC1` came in with a melting point of 112 to 116 °C. As for `Cc1nc2n(c(=O)c1CCN1CCN(c3noc4c(C)cccc34)CC1)CCCS2`, the figure is 170 °C; as for `ON=C1COc2cc(OCc3c(F)cccc3F)ccc21`, 166 to 172 °C; as for `COc1ccc(C2C[N+]([O-])=C3CCCCC32)cc1OC` (centres undefined), 135 to 141 °C. Regarding `CCOC(=O)C1=C(N)NC(N)=C(C(=O)OCC)C1c1ccccc1N=[N+]=[N-]`, the melting point was 250 °C. As for `NCC1(Cc2noc(=O)[nH]2)CCCCC1`, the figure is 109 to 111 °C; as for `COC(=O)[C@@H]1C[C@H](O)C(=O)[C@@H]2[C@@]3(C)C[C@@H](c4ccoc4)OC(=O)[C@H]3CC[C@]21C`, 211 to 214 °C.

On to `COc1cc([N+](=O)[O-])c(Br)cc1OCc1ccccc1`, for which the melting point was in the range of 134 to 135 °C. As for `Cc1nc2cccc(OCC(C)(C)NC(=O)c3ccncc3)c2c(N)c1C(=O)O`, the figure is 195 to 198 °C; as for `CCCC(=O)C(=O)C(CC1CCCCC1)NC(=O)C(CC(C)C)NC(=O)C(Cc1ccccc1)NC(=O)C1CCCC1` (centres undefined), 152 to 161 °C. With `O=C(N[C@H]1CCN(CCc2ccc(F)cc2)C1)n1c2ccccc2c2ccccc21` the figure was 107 to 108 °C; with `Cc1ccc(N2C(=O)C(O)=C(C(=O)c3ccc(C(C)(C)C)cc3)C2c2ccc(OC(F)(F)F)cc2)nn1` (centres undefined), 262 to 265 °C; with `CCCc1c(C(=O)NCc2ccc3cc(OCC(=O)OC)ccc3c2)cnn1-c1ccccc1`, 145 to 146 °C. `COc1cccc(C(=O)Nc2cc(C(=O)NCc3ccccc3)ccn2)c1`: the melting point lay within 95 to 96 °C. `Clc1ccc(CSCc2ccc(Cl)c(Cl)c2)cc1Cl`: the melting point was in the range of 98 to 99 °C.

Regarding `CC(=O)NCCO[C@H]1COc2ccc3cnn(C[C@@H](C)O)c3c2C1`, the melting point was in the range of 165 to 166 °C. In turn, `Cc1ccc(NC(=O)c2ccc(C(=O)Nc3ccccc3NC(=O)OC(C)(C)C)s2)cc1Nc1nc(-c2cccnc2)cs1` registered a melting point of 218 °C. `CCNC(=O)CN(C)C(=O)[C@H](C)NC(=O)CC` registered a melting point of 149 to 151 °C.

Turning to `Cc1ccc(CCC(=O)c2c(O)c3cccnc3n(-c3ccccc3)c2=O)cc1`, the melting point lay within 232 to 234 °C. The compound `CSc1sc(C(=O)O)c2c1-c1sc(-c3ccccc3)cc1CC2` displayed a melting point of 215 to 217 °C. The compound `COc1cc2c(cc1OC)C(C)=[N+]([O-])C(c1ccco1)N2` (centres undefined) had a melting point of 191 to 195 °C. The compound `N#Cc1ccc(OCc2ccc3c(c2)OCO3)cc1OC(C(=O)O)c1ccccc1C(F)(F)F` (racemic) displayed a melting point of 137 to 138 °C. `C=CC1OC(OC)C(OCc2ccccc2)C(OCc2ccccc2)C1OCc1ccccc1` (centres undefined): the melting point is 46 to 47 °C.
